Assay results reported in patent US11476000B2, “Methods and systems using mathematical analysis and machine learning to diagnose disease” (Analytics For Life Inc., priority 2015, dated 2022).

Tests used:
[1] = system: test rats exposed to DMO in-utero; assay: Cardiovascular adaptation to pregnancy in rats exposed to DMO in utero; format: in vivo, rat; settings: in-utero exposed rats with resolved CHD; altered CO, SV, strain, elevated mean arterial pressure
Protocol: (§1) To explore the potential deleterious long-term consequences of resolved CHDs, the exemplified rat model was developed that recapitulates many of the clinical presentations of CHD. To generate such a model, pregnant rats were treated with a chemical teratogen. […] Without wishing to be bound to particular theory, it is thought that DMO teratogenicity is mediated by oxidative stress which might be the result of the result of hypoxia reperfusion injury caused by bradycardias induced by disruption of calcium and potassium ion channels in embryonic myocytes. […] The administration of four 300 mg/kg doses every twelve hours beginning on the morning of gestation day (GD) 9 produces approximately a 50% incidence of CHD if fetuses are examined on GD 21, one day prior to natural parturition (see, e.g., Weston et al., “Co-variation in frequency and severity of cardiovascular and skeletal defects in Sprague-Dawley rats after maternal administration of dimethadione, the N-demethylated metabolite of trimethadione. Birth defects research Part B,” Developmental and reproductive toxicology, Vol. 92, Pages 206-15 (2011)). […] For example, in infants, approximately 80% of VSD resolves by one year of age, and in test rats after DMO exposure, about 80% of the VSD resolve spontaneously by weaning. […]

[2] = system: outbred pregnant Sprague-Dawley rats; assay: Teratogenicity of maternal DMO administration in pregnant rats (CHD in progeny); format: in vivo; settings: rat pups after DMO exposure, natural delivery, echocardiography
Protocol: as §1

[3] = system: outbred pregnant Sprague-Dawley rats; settings: four 300 mg/kg doses every twelve hours beginning morning of GD 9; fetuses examined on GD 21; cited from earlier work
[4] = estimated; cited from earlier work

CC1(C)OC(=O)NC1=O [DMO, dimethadione]
adaptation of the cardiovascular system to pregnancy [1]: adapted poorly to the burden of pregnancy | VSD that resolve spontaneously by weaning [2]: approximately 80% | incidence of CHD [3]: ~50%

CN1C(=O)OC(C)(C)C1=O [trimethadione]
in utero exposures resulting in embryo/fetal loss, or malformations including a high incidence of CHD [4]: 80%
